Laboratory results reported in ChEMBL document CHEMBL5209573, “Fluo-8 based assay for SLC24A2 using HEK293 SLC24A2 JumpIn OE cells” (2022).

Target: Sodium/potassium/calcium exchanger 2 (Homo sapiens, UniProt Q9UI40)
Test: Substrate uptake by the Sodium/Potassium/Calcium Exchanger 2 (NCKX2, SLC24A2) as assessed by Screen Questtrade mark Fluo-8 NW calcium assay kit in HEK-293 JumpIN-SLC24A2 cells (PubChem AID: 1794815)
Assay type: functional, cell-based, HEK293

Chain of Sodium/potassium/calcium exchanger 2 (Q9UI40 whole entry): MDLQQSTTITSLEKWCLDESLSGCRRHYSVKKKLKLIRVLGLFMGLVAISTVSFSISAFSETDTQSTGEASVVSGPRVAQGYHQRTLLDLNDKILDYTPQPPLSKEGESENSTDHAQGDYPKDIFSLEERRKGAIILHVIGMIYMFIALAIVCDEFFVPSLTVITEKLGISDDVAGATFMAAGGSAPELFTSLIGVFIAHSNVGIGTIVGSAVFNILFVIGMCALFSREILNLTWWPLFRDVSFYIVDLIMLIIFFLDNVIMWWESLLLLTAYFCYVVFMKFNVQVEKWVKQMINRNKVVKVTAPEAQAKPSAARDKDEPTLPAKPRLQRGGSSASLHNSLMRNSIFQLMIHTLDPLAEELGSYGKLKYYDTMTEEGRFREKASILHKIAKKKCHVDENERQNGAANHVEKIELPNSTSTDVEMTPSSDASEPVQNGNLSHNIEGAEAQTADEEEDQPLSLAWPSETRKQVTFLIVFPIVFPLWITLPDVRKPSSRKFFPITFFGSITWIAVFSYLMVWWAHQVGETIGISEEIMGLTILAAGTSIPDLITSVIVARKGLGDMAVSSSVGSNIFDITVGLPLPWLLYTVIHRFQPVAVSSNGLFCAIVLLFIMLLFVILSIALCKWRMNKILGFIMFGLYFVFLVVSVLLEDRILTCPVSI

EC50: 280 mM
Compound: [Cl-].[K+] [POTASSIUM CHLORIDE]
